System: γH2AX
Assay: Impurity genotoxicity assessment with the SERS cell-based sensor (L02 cells, Anti γH2AX@GPMT probe), fold of induction of γH2AX
Conditions: 24 h incubation, MMS 50 μg/ml, SA 50 μg/ml, 5-Fu 0.1 μg/ml, NDEA 500 μg/ml, FI > 1.5 judged genotoxic
Protocol: A human liver cell line L02 is cultured in DMEM containing 10% fetal calf serum, and put in a 37° C. incubator containing 5% CO2, and a sterile operation is performed in an entire process. When the cells grow to a logarithmic phase, L02 is inoculated into a 24-well plate containing a cell slide according to a density of 5000 cells/well, after being attached to a wall, a culture medium is replaced by a SERS probe culture medium with a concentration being 0.05 nM, and incubation is performed for 4 h.
The cell-based sensor culture medium is replaced by a culture medium containing impurities of different concentrations, continuous incubation is performed for 24 h, then the slide is taken out and put in a confocal inverted microscope bright and dark field imaging Raman spectrometer to be tested, the Raman signals of the test group and the control group are compared, and the impurity genotoxicity is assessed.
Methyl methanesulfonate (MMS), a salicylic acid (SA), 5-fluorouracil (5-Fu) and N-nitrosodiethylamine (NDEA) are selected respectively as genotoxic impurities of different structure types to be tested. […]

Compound | FI value (fold of induction, concentration ratio of effector molecules of test group and control group)
CCN(CC)N=O [NDEA, N-nitrosodiethylamine] | 3.59
O=C(O)c1ccccc1O [SA, salicylic acid] | 1.02

From patent US20240280493A1, “CELLULAR SENSORS BASED ON SURFACE-ENHANCED RAMAN SCATTERING AND APPLICATION THEREOF” (CHINA PHARMACEUTICAL UNIVERSITY, priority 2022, published 2024)
